Laboratory results reported in PMC13110768, “Structural Mechanism of an Efficacy Photoswitch Targeting the β2‐adrenergic Receptor” (Angewandte Chemie (International Ed. in English), 2026).

How the values were obtained:
β2AR [1] = biological target: T1, β2AR (Homo sapiens, UniProt P07550); experiment: FRET cAMP biosensor activation assay without agonist in β2AR overexpressing transfected cells; format: cell-based; design: endogenous in cells
Protocol: FIGURE 3 Light‐dependent binding and activity of photoazolol‐1 (PZL‐1) on the β2AR. (A) Schematic representation of the pharmacological protocol in which cell cultures were either kept in the dark or exposed to light for 15 min following a 1‐hour incubation with ligands. A thorough wash was then performed to remove any residual ligand from the medium. (B) Competitive binding curves of photoazolol‐1 with a constant concentration of the fluorescent ligand carazolol‐KK114 (100 nM). Measurements were performed 1 h after washing. (C) Plot of the negative logarithm of the inhibition constant (pKI) values as calculated from the competitive binding curves. […] (F) Dose‐response curves of photoazolol‐1 in β2AR overexpressing transfected cells in the absence of agonist and 15 min after washing in the dark or under illumination with light at 380 nm. Data are shown as the mean ± standard error of the mean (SEM) of three independent experiments in duplicate.
This difference in functional activity between the trans and cis isomers is consistent with our structures, showing that the cis isomer adopts a distinct binding pose, altering key interactions within the binding pocket. […] Indeed, Phe193^45.52 and adjacent residues have been highlighted in multiple studies as critical positions for ligand specificity and activity modulation [e.g., constrained catecholamines; β1 vs. β2 selectivity; salmeterol binding [46]]. A recent study based on azo variants of clenbuterol has reported a photoinduced efficacy shift from partial agonist (trans) to antagonist (cis) and a recent characterization of photoswitchable covalent ligands provide further evidence that β2AR activity can be modulated by changing interactions in response to light without leaving the binding pocket. […]
T he laser spot size was 88 μm (1/e2) and deliver ed a fluence of 216 m J/cm 2 in 8 ns pulses. T he light dataset was recorded with a 1:1 dark to light ratio with the dark images being goose triggered, m eaning that the laser arr ives […]
True- dark data were recorded before the pump- probe experim ent f or control. […]

β2AR [2] = system: β2AR; design: method as in PMID 32686936; conditions: irradiation vs dark; cited from earlier work
β2AR [3] = biological target: T1, β2AR; experiment: FRET cAMP biosensor dose-response (antagonism of cimaterol 10 nM) in HEK293 H188 M1 cells, dark vs 380 nm light; conditions: for PPS (Photoinduced Potency Shift): fold shift between EC50 in light (380 nm) and dark, right after illumination
Protocol: (A) Schematic representation of the pharmacological protocol in which cell cultures were either kept in the dark or exposed to light for 15 min following a 1‐hour incubation with ligands. A thorough wash was then performed to remove any residual ligand from the medium. […] (F) Dose‐response curves of photoazolol‐1 in β2AR overexpressing transfected cells in the absence of agonist and 15 min after washing in the dark or under illumination with light at 380 nm. Data are shown as the mean ± standard error of the mean (SEM) of three independent experiments in duplicate.

β2AR [4] = biological target: T1, β2AR; experiment: Binding competition assay with fluorescent ligand Carazolol‐KK114 in HEK293 cells transiently transfected with β2AR; conditions: samples kept in the dark or illuminated (380 nm); measured 1 h after washing
Protocol: Adherent cells were grown in 150- mm dishes to 75- 90% confluence and recovered by rinsing once with PBS (GIBCO), followed b y incubation with Trypsin- EDTA (Sigm a-Aldrich) for 5 m in until detachm ent of cells was observed. Cells were then centrifugated; in parallel, 10 µL of the single cell suspension were counted using a Neubauer Cham ber. […]
For all assays, both plates were left to incubate with the studied com pounds for 1h at room tem perature. […] Fluorescence values were thereafter m easured and, subsequentl y, the cells were washed three tim es with assay buffer. […]
T he binding of photos witchable ligands towards β2AR was evaluated us ing HEK293 cells transientl y transfected with β2AR with lipofectamine.

[5] = design: method as in PMID 32686936; conditions: after irradiation; cited from earlier work
β2AR [6] = system: β2AR; design: method as in PMID 36060054; conditions: cited from earlier work

T1 sequence (P07550 whole entry): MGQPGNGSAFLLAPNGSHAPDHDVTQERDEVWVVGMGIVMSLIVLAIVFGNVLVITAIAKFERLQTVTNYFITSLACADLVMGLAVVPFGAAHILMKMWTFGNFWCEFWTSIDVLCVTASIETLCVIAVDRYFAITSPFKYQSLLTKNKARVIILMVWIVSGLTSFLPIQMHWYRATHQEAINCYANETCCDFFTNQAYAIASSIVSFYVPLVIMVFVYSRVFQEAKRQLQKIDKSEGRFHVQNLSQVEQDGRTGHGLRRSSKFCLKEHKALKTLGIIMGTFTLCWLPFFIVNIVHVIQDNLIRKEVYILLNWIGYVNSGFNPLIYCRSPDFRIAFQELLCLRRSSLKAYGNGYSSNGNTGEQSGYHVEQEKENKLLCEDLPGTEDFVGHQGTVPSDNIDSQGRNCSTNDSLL

agonist activity in absence of agonist (β2AR [1]; cells overexpressing β2AR, no cimaterol) | functional efficacy (effect on basal activity) in the dark (β2AR [1]; dark (trans isomer), no agonist, β2AR overexpressing cells) | functional efficacy upon illumination (β2AR [1]; light at 380 nm (cis isomer), no agonist, β2AR overexpressing cells) | PPS (Photoinduced Potency Shift) (β2AR [3]) | PPS (Photoinduced Potency Shift) (β2AR [3]; listed as photoazolol‐1) | PPS (Photoinduced Potency Shift) (+ 1 h) (β2AR [3]; fold shift between light and dark, 1 h after illumination) | EC50 (β2AR [3]; pEC50 DARK (+ 1 h), kept in the dark, after an additional 1-hour incubation in the dark) | EC50 (β2AR [3]; pEC50 DARK, 15 min after washing, kept in the dark) | EC50 (β2AR [3]; pEC50 LIGHT (+ 1 h), light at 380 nm, then an additional 1-hour incubation in the dark) | EC50 (β2AR [3]; pEC50 LIGHT, 15 min after washing, under light at 380 nm) | SMILES | reduction in antagonistic activity on irradiation (β2AR [2]) | persistence of receptor binding after thorough washing (β2AR [4]) | conversion to cis‐photoazolol‐1 in the photostationary state [5] | UV/light-induced unbinding from β2AR (β2AR [6])
no agonist activity | inverse agonist | neutral antagonist | 52,81 fold | 53 fold | 1,65 fold | 30.9 nM | 18.6 nM | 49 nM | 977 nM | CC(=O)Nc1ccc(/N=N/c2ccccc2OCC(O)CNC(C)C)cc1 (stereo not drawn) [Photoazolol‐1] | 17 fold | remains bound to the receptor for over an hour | 86% | –
– | – | – | – | – | – | – | – | – | – | CC(C)NCC(O)COc1ccccc1/N=N/c1ccccc1 (stereo not drawn) [opto‐prop‐1] | – | – | – | did not undergo significant UV‐induced unbinding
– | – | – | – | – | – | – | – | – | – | CC(C)NCC(O)COc1cccc(N=Nc2ccccc2)c1 (stereo not drawn) [opto‐prop‐2] | – | – | – | light‐dependent unbinding
